# From US7993687B2, “Compositions and methods for management of diabetes” (priority 2006, dated 2011)
# How the values were obtained:
# [1] = system: Insulin receptor substrate-I (Tyr941); experiment: Western blot of IRS-1 phosphorylation in H4IIE cells; format: cell-based, rat; conditions: 6 minutes
# Protocol: (§1) Tissue culture media, antibiotics, fetal bovine serum (FBS) and Nunc tissue culture plates were purchased from Invitrogen Canada Inc. (Burlington, Ontario, Canada, L7P 1A1). Insulin (Sigma-Aldrich Canada Ltd., Oakville, Ontario, Canada, L6H 6J8) was dissolved in water and added directly to cells at a concentration of 250 nM unless otherwise indicated. The BWE was prepared and analyzed as described in Example 1. Two μL of the BWE were added directly to cells unless otherwise indicated. This amount was chosen on the basis of equivalence to insulin. Myo-inositol (Sigma-Aldrich Canada Ltd.) and D-chiro-inositol (Industrial Research Ltd., Wellington, New Zealand) were dissolved in water at an equal concentration to the amounts present in the BWE (Table 3) and 2 μL of each solution (0.1% v/v final concentration) was added directly to cells.
# (§2) Rat H4IIE hepatoma cells (American Type Culture Collection, CRL 1548) were cultured following the method disclosed by Yau et al., (1998, Eur. J. Biochem. 253: 91-1). The H4IIE cells were maintained in α-modified Eagle's media containing 10% FBS, 2 mM glutamine, 25 μg·mL^−1 streptomycin and 25 units·mL^−1 penicillin. Cells were plated and grown to 70% confluence. All cells were placed into serum-free medium for 72 h before addition of stimulating agents to ensure entry into a quiescent state. […]
# (§3) Cellular protein extracts were prepared by addition of 200 μL 2×SDS/gel loading buffer (0.125 M Tris pH 6.8, 2% SDS, 10% glycerol) to H4IIE cells in 12-well culture dishes. The samples were briefly sonicated, and protein content measured using the BCA protein assay kit. […] HRP was detected using the ECL chemiluminescent system after the membranes had been washed four times.
# (§4) Quantification of data obtained on film (Kodak X-omat) was accomplished with a GS800 imaging densitometer (Bio-Rad Laboratories) under nonsaturating conditions with local background subtraction. […]
# [2] = system: p42/44 MAPK (Thr202/Tyr204); experiment: Western blot of MAPK phosphorylation in H4IIE cells; format: cell-based, rat; conditions: for phosphorylation of MAPK (FIG. 9): 6 minutes, insulin 250 nM, 2 μL of BWE, D-CI or MI solution
# Protocol: as §1, with “This amount was chosen on the basis of equivalence to insulin.” left out
# (§5) Rat H4IIE hepatoma cells (American Type Culture Collection, CRL 1548) were cultured following the method disclosed by Yau et al., (1998, Eur. J. Biochem. 253: 91-1). The H4IIE cells were maintained in α-modified Eagle's media containing 10% FBS, 2 mM glutamine, 25 μg·mL^−1 streptomycin and 25 units·mL^−1 penicillin. Cells were plated and grown to 70% confluence. All cells were placed into serum-free medium for 72 h before addition of stimulating agents to ensure entry into a quiescent state.
# (§6) Cultures of quiescent H4IIE cells or quiescent FAO cells were placed into 12-well culture dishes containing 2 mL serum-free medium, and then stimulated by direct addition of the inhibitors listed in Table 1 (volumes of additions were 10 μL or less) without replacing the medium. […] The cells in 12-well culture dishes were incubated with stimulating agents for 6 minutes and rinsed with phosphate buffered saline (PBS; 0.9% NaCl, 0.1 M Na3PO4, pH 7.1).
# (§7) Cellular protein extracts were prepared by addition of 200 μL 2×SDS/gel loading buffer (0.125 M Tris pH 6.8, 2% SDS, 10% glycerol) to H4IIE cells in 12-well culture dishes. The samples were briefly sonicated, and protein content measured using the BCA protein assay kit. Aliquots containing equal amounts of protein were mixed with bromophenol blue (0.5% (w/v) final concentration) and 2-mercaptoethanol (5% (v/v) final concentration), heated at 95° C. and loaded onto 7.5% or 10% polyacrylamide gels. […] Primary antibodies (diluted 1:1000 in 3% (w/v) BSA) were incubated with the membrane for 60 min at 22° C. Membranes were subsequently washed four times and incubated for an additional 60 min at 1 8-22° C. in 1% (w/v) BSA-TBST with diluted HRP-coupled secondary antibody (1:10 000). HRP was detected using the ECL chemiluminescent system after the membranes had been washed four times.
# Quantification of data obtained on film (Kodak X-omat) was accomplished with a GS800 imaging densitometer (Bio-Rad Laboratories) under nonsaturating conditions with local background subtraction. Although multiple exposures were acquired to ensure the absence of film saturation, the experimental figures typically show longer exposures selected specifically for visual presentation and not necessarily used for data analysis. Graphical data are presented as means±SE for a minimum of three replicate samples. […]
# [3] = system: p70S6K (Thr389 and Thr421); experiment: Western blot of p70S6K phosphorylation in H4IIE cells; format: cell-based, rat
# Protocol: as §1, §5, §6, §7
# (§8) Quantification of data obtained on film (Kodak X-omat) was accomplished with a GS800 imaging densitometer (Bio-Rad Laboratories) under nonsaturating conditions with local background subtraction. Although multiple exposures were acquired to ensure the absence of film saturation, the experimental figures typically show longer exposures selected specifically for visual presentation and not necessarily used for data analysis. Graphical data are presented as means±SE for a minimum of three replicate samples.
# plasma glucose = conditions: normal rats; synthetic D-CI intragastrically 2 hours before intraperitoneal glucose load (4 g/kg); cited from earlier work
# Src (Tyr527) = experiment: Western blot of Src phosphorylation in H4IIE cells; format: cell-based, rat; conditions: 6 minutes
# Protocol: as §1, §2, §3, §4
# [4] = system: S6 ribosomal protein (Ser235/236); experiment: Western blot of ribosomal protein S6 phosphorylation in H4IIE cells; format: cell-based, rat; conditions: 6 minutes
# Protocol: as §1, with “Myo-inositol (Sigma-Aldrich Canada Ltd.) and D-chiro-inositol (Industrial Research Ltd., Wellington, New Zealand) were dissolved in water at an equal concentration to the amounts present in the BWE (Table 3) and 2 μL of each solution (0.1% v/v final concentration) was added directly to cells.” left out
# as §3, §4
# PDK-1 (Ser241) = experiment: Western blot of PDK-1 phosphorylation in H4IIE cells; format: cell-based, rat; conditions: for PDK-1 (Ser241) phosphorylation, stimulation (fold) relative to the control: 6 min, one experiment
# Protocol: as §1, §5, §6, §7, §8
# Raf (Ser259) = experiment: Western blot of Raf phosphorylation in H4IIE cells; format: cell-based, rat; conditions: for Raf (Ser259) phosphorylation, stimulation (fold) relative to the control: 6 min, one experiment
# Protocol: as §1, §5, §6, §7, §8
# [5] = insulin-stimulated, 6 min, 15-min preincubation with the inhibitor (None = insulin alone), one experiment
# [6] = insulin-stimulated, 15-min preincubation with the inhibitor (None = insulin alone)
# [7] = BWE-stimulated, 15-min preincubation with the inhibitor (None = BWE alone)
Compound,phosphorylation of IRS-1 [1],phosphorylation of MAPK (FIG. 9) [2],phosphorylation of p70S6K (Thr421) ([3]; 6 minutes),decrease in plasma glucose (plasma glucose),phosphorylation of Src (Src (Tyr527)),phosphorylation of ribosomal protein S6 [4],"phosphorylation of MAPK, stimulation (fold) relative to the control (Table 6) ([2]; insulin treatment, 6 min, 15-min preincubation with PKA/PKC inhibitor (None = insulin alone), one experiment)","p42/44 P-MAPK (Thr202/Tyr204) phosphorylation, stimulation (fold) relative to the control [2, 5]",phosphorylation (activation) of PDK (PDK-1 (Ser241); 6 minutes),"PDK-1 (Ser241) phosphorylation, stimulation (fold) relative to the control (PDK-1 (Ser241); [6])",phosphorylation (activation) of RAF (Raf (Ser259); 6 minutes),"Raf (Ser259) phosphorylation, stimulation (fold) relative to the control (Raf (Ser259); [6])",phosphorylation of p70S6K (Thr389) ([3]; 6 minutes),"p42/44 P-MAPK (Thr202/Tyr204) phosphorylation, stimulation (fold) relative to the control ([2]; BWE-stimulated, 6 min, 15-min preincubation with the inhibitor (None = BWE alone), one experiment)","effect of the inhibitor on insulin- and BWE-stimulated phosphorylation of MAPK ([2]; preincubation with inhibitor, then insulin or BWE for 6 minutes)","PDK-1 (Ser241) phosphorylation, stimulation (fold) relative to the control (PDK-1 (Ser241); [7])","Raf (Ser259) phosphorylation, stimulation (fold) relative to the control (Raf (Ser259); [7])","effect of the inhibitor on insulin-stimulated phosphorylation of p70S6K (Thr389) ([3]; 15-minute pre-incubation with inhibitor, then INS 6 minutes)","effect of the inhibitor on insulin- and BWE-stimulated phosphorylation of p70S6K (Thr421) ([3]; 15-minute pre-incubation with inhibitor, then INS or BWE 6 minutes)"
"OC1C(O)C(O)C(O)C(O)C1O [D-CI, D-chiro-inositol]",do not provide comparable stimulation,neither D-CI nor MI increased phosphorylation,unable to effect phosphorylation,30-50%,do not provide comparable stimulation,,,,,,,,,,,,,,
"O[C@H]1[C@H](O)[C@@H](O)[C@H](O)[C@@H](O)[C@H]1O [MI, myo-inositol]",do not provide comparable stimulation,neither D-CI nor MI increased phosphorylation,unable to effect phosphorylation,,do not provide comparable stimulation,,,,,,,,,,,,,,
"insulin: Insulin (Sigma-Aldrich) dissolved in water, positive comparator",phosphorylated in response to insulin,increased the phosphorylation of MAPK,stimulates the phosphorylation of p70^S6K on both residues,,phosphorylated in response to insulin,insulin did,3.53 fold,13.3 fold,not stimulated,1.57 fold,not stimulated,0.53 fold,stimulates the phosphorylation of p70^S6K on both residues,,,,,,
COc1cccc(-c2cc(=O)c3ccccc3o2)c1N [PD98059],,,,,,,,1 fold,,1.89 fold,,0.20 fold,,1.00 fold,inhibited,0.54 fold,0.20 fold,independent of MAPK,MAPK-dependent (PD98059 sensitive)
